Source: patent US10335378B2, “Inhibition of central nervous system effects from smoking and sensory effects from smoking” (Altria Client Services LLC, priority 2013, dated 2019)
“Also recorded” adds a separate entry of the source.

How the values were obtained:
[1] = test system: nAChR receptor; test: Nicotine-induced CGRP release in mouse trachea tissue (ELISA); type: cell-based; conditions: for Maximal nicotinic response (CGRP release, time course): trachea tissue pretreated with nicotine, then enantiomer, FIG. 2; for CGRP release versus nicotine alone: trachea samples exposed to nicotine plus test substance, FIG. 1b
Method: (§1) CGRP is a sensory biomarker of neurons that mediate information to the brain. CGRP release can be detected in vitro using whole trachea tissue by exposing the tissue to a stimulatory compound. A standard ELISA assay may then be used to measure the release of CGRP. The active ingredient was tested using a mouse trachea model.
In order to determine whether a specific enantiomer of the active ingredient show greater efficacy, time course experiments were conducted in which trachea tissue samples were pretreated with nicotine and exposed to either the (−) or (+) enantiomer of camphor.
(§2) (FIG. 3a). […] Calcium-imaging experiments were performed on mouse nodose/jugular Ggl neurons with images captures at 340 and 380 nm over time. (FIG. 3b). […] (FIG. 3b). […] (FIG. 3c). […] (FIG. 3c). […] (FIG. 3d).

[2] = test system: TRPV1 channel; test: Heat (45° C.)-induced CGRP release in tracheal samples; type: cell-based, mouse; conditions: FIG. 6; for Heat-induced CGRP release with test substance: 45° C.
[3] = molecular target: T1, TRPA1 channel (Mus musculus, UniProt Q8BLA8); test: Acrolein-induced CGRP release in mouse trachea tissue; type: cell-based; parameters: CGRP release can be detected in vitro using whole trachea tissue; from tissue; host or cells: mouse trachea; conditions: FIG. 7; for CGRP release versus acrolein alone: trachea samples exposed to acrolein plus test substance
Method: as §1
(FIG. 7). […] (FIG. 7). […] (FIG. 7).

[4] = test system: mouse nodose/jugular Ggl neurons; test: Calcium imaging (340 and 380 nm) of nicotine-stimulated neurons; type: cell-based; conditions: FIG. 3b
Method: as §2

[5] = molecular target: T1, TRPA1 channel; test: Formalin-stimulated CGRP release in skin and tracheal tissue samples; type: cell-based; parameters: formalin-stimulated GCRP release in both skin and tracheal tissue samples; from tissue; host or cells: skin and tracheal tissue samples; conditions: FIG. 8
Method: (§3) Similar dosing experiments were performed using formalin, a TRPA1 channel […]. […] (FIG. 8). […] Thus, in some embodiments, active ingredients may be used that inhibit both the nicotinic acetylcholine receptors and the TRPA1 channel. […] (FIG. 9). […] (FIG. 9).

[6] = molecular target: T1, TRPA1 channel; test: TRPA1 irritant-stimulated iCGRP release in tracheal tissue samples; type: cell-based; parameters: formalin-stimulated GCRP release in both skin and tracheal tissue samples; from tissue; host or cells: skin and tracheal tissue samples; conditions: tracheal tissue samples with TRPA1 channel irritants; FIG. 9
Method: as §3

[7] = test system: tracheal tissue samples; test: Total particulate matter (TPM)-stimulated CGRP release in tracheal tissue samples; type: cell-based; conditions: FIG. 10
From the text: To assess the potential of camphor on GCRP release stimulated by cigarette smoking, tracheal tissue samples were exposed to total particulate matter (TPM) containing the same amount of nicotine as in the nicotine alone experiment. […] (FIG. 10). […] (FIG. 10). The results observed in the TPM experiments are similar to those seen in experiments in which nicotine is used alone. (FIG. 10).

[8] = test system: nerve fibers; conditions: isolated mouse trachea model; cited from earlier work
[9] = test system: nicotinic acetylcholine receptors; test: Nicotine-induced CGRP release in buccal mucosa tissue samples; type: cell-based, mouse
From the text: Active ingredients appropriate for use in embodiments described herein may also include isoborneol.

[10] = test system: acetylcholine receptors; conditions: adrenal gland cells; cited from earlier work
[11] = test system: nAChR receptor; test: Epibatidine-induced CGRP release in tracheal tissue; type: cell-based, mouse
[12] = tracheal samples of normal mice
[13] = tracheal samples of TRPV1 knockout mice

T1 sequence (Q8BLA8 whole entry): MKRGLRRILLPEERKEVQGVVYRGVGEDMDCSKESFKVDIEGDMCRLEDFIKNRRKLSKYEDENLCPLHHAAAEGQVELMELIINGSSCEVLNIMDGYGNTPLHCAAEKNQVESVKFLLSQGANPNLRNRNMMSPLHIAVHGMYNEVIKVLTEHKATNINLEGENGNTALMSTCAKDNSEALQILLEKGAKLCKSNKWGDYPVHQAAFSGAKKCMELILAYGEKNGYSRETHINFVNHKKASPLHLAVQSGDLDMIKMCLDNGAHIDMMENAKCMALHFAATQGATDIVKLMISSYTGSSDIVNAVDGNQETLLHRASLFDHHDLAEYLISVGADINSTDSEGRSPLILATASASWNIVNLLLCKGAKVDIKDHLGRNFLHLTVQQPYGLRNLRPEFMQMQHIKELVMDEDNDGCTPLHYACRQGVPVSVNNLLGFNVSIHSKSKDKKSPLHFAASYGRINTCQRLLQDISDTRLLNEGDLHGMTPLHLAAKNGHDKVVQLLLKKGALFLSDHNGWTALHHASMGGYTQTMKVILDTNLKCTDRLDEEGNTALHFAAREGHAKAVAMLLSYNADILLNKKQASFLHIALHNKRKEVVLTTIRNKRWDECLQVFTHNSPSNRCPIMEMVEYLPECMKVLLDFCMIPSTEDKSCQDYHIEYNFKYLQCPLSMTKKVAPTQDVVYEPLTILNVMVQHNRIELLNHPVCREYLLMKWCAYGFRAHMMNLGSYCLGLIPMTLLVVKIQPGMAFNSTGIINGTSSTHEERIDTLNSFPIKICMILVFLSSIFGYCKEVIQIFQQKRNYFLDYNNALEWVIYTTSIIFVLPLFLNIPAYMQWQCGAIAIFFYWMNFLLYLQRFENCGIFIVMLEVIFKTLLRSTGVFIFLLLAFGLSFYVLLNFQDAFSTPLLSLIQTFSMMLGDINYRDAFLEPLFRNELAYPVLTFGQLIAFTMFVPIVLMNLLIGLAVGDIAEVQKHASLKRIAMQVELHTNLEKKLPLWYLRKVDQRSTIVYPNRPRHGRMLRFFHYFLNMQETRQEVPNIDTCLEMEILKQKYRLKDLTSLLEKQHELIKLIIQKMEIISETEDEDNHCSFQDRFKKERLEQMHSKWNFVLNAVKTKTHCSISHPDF

CC12CCC(CC1=O)C2(C)C (single isomer, unassigned; (+)) [(+) enantiomer of camphor]
Maximal nicotinic response (CGRP release, time course) [1]: effective at abolishing the maximal nicotinic response

NCCOB(c1ccccc1)c1ccccc1 [2-APB]
Heat-induced CGRP release with test substance [2, 12]: increase CGRP release

CC1(C)[C@H]2CC[C@]1(C)C(=O)C2 (single isomer, unassigned) [(−) enantiomer of camphor]
Maximal nicotinic response (CGRP release, time course) [1]: effective at abolishing the maximal nicotinic response

CC(C)(C)c1ccc(NC(=O)N2CCN(c3ncccc3Cl)CC2)cc1 [BCTC, reference compound]
CGRP release versus nicotine alone [1]: did not show any significant reduction in CGRP release

CC(C)c1ccc(NC(=O)Cn2cnc3c2c(=O)n(C)c(=O)n3C)cc1 [HC030031, reference compound]
CGRP release versus acrolein alone ([3]; FIG. 1c): CGRP release was also reduced | CGRP release versus nicotine alone [1]: did not show any significant reduction in CGRP release

CC12CCC(CC1=O)C2(C)C (stereo not shown) [camphor]
Nicotine-stimulated calcium influx in combination with test substance [4]: not when given in combination with camphor | Effect of camphor at high formalin concentrations ([5]; both skin and tracheal tissue samples): could be overcome at high formalin concentrations | Formalin-stimulated CGRP release with camphor ([5]; skin tissue samples): decrease in formalin-stimulated GCRP release | Formalin-stimulated CGRP release with camphor ([5]; tracheal tissue samples): decrease in formalin-stimulated GCRP release | Heat-induced CGRP release with test substance [2, 13]: released comparable levels of CGRP relative to normal samples | Heat-induced CGRP release with test substance [2, 12]: released comparable levels of CGRP relative to normal samples | CGRP release versus acrolein alone ([3]; FIG. 1c): decrease in CGRP release; also recorded: marked reduction in CGRP release | CGRP release in camphor treated samples as acrolein concentration was increased ([3]; versus acrolein only at the same concentration): significantly lower levels of CGRP | TRPA1 channel mediated release of iCGRP with camphor [6]: reduce the TRPA1 channel mediated release of iCGRP | TPM-stimulated CGRP release with camphor [7]: largely blocked | Activation of nerve fibers induced by nicotine [8]: effectively inhibit activation of nerve fibers | CGRP release after nicotine followed by test substance, versus nicotine alone ([9]; buccal mucosa time course, male mice showed stronger inhibition, FIGS. 5a and 5b): CGRP release was significantly lower | CGRP release with nicotine and camphor ([9]; buccal mucosa, TRPA1/TRPV1 double knockouts, FIG. 4): did not show a significant change in CGRP release | Nor-epinephrine release [10]: inhibit nor-epinephrine release from adrenal gland cells | Dose dependence of anti-nicotinic effect (CGRP release) ([1]; mouse trachea, nicotine plus various concentrations of camphor, FIG. 3a): CGRP release was decreased as the concentration of camphor was increased | CGRP release versus nicotine alone [1]: released less CGRP compared to samples exposed to nicotine alone | Epibatidine-induced CGRP release with camphor in absence of TRPA1 ([11]; tracheal samples from TRPA1 knockout mice, FIG. 3d): effectively inhibited CGRP release; also recorded: marked reduction in CGRP release | Epibatidine-induced CGRP release with inhibitor ([11]; tracheal tissue, FIG. 3c): release of CGRP could be inhibited

Clc1ccc(C2CC3CCC2N3)cn1 (stereo not shown) [epibatidine, reference compound]
CGRP release induced by the stimulus alone ([11]; tracheal tissue, FIG. 3c): increased release of CGRP

C=CC=O [acrolein, reference compound]
CGRP release induced by the stimulus alone ([3]; trachea tissue, various concentrations, FIG. 1c): cause CGRP release at various concentrations; also recorded: released increased amounts of CGRP when exposed to higher concentrations

CN1CCCC1c1cccnc1 (stereo not shown) [nicotine]
Calcium influx, stimulus alone [4]: stimulated calcium influx in Ggl neurons | CGRP release induced by nicotine alone ([9]; buccal mucosa, TRPA1/TRPV1 double knockout mice, FIG. 4): did not respond to nicotine exposure by releasing similar amounts of CGRP relative to normal mice | CGRP release induced by nicotine alone ([9]; buccal mucosa, normal C57Bl/6 mice, FIG. 4, FIGS. 5a and 5b): released increased amounts of CGRP; also recorded: increased release of CGRP | CGRP release induced by the stimulus alone ([1]; mouse trachea, FIG. 1a): induce the release of calcitonin gene-related peptide (CGRP)

CNC1(C)C2CCC(C2)C1(C)C (stereo not shown) [Mecamylanine, reference compound]
Epibatidine-induced CGRP release with inhibitor ([11]; tracheal tissue, FIG. 3c): release of CGRP could be inhibited

CCO [ethanol]
CGRP release in ethanol-treated TRPV1 knockout samples relative to ethanol-treated normal samples ([2]; heat treated tracheal samples): 5 fold less | Heat-induced CGRP release with test substance [2, 13]: increase in CGRP release relative to untreated TRPV1 knockouts | Heat-induced CGRP release with test substance [2, 12]: increase CGRP release
